The values that follow come from US7910612B2, “4-oxy-N-[1,3,4]-thiadiazol-2-yl-benzene sulfonamides, pharmaceutical compositions and methods for their therapeutic use” (Sanofi-Aventis, priority 2005, dated 2011).

Each structure is given as a SMILES string.

A word on the EC50: it is the midpoint of the concentration-response curve. Read a low EC50 as an effect from little substance.

The test deals with T1, human PPARalpha (Homo sapiens, UniProt Q07869).
T1 construct: amino acids S167-Y468; expressed in transfected cells; host or cells: HEK (human embryo kidney) cells, stably transfected, pcDNA3 vector
T1 sequence (Q07869 167-468): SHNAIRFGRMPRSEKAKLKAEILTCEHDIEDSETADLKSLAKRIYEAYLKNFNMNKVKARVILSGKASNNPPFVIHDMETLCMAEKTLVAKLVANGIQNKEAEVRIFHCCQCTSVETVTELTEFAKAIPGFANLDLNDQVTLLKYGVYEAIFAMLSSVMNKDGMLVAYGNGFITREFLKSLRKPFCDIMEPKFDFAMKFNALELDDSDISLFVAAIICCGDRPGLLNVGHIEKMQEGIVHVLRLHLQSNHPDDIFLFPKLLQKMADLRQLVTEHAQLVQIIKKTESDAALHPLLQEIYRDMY
The experiment in a line: cellular PPARalpha assay (stably transfected HEK luciferase reporter cell line). The test is classed as cell-based. The method, then:
The activity of the compounds was tested by a determination of EC50 values of PPAR agonists in the cellular PPARalpha assay. The potency of substances which bind to human PPARalpha and activate it in an agonistic manner is analyzed using a stably transfected HEK cell line (HEK=human embryo kidney) which is referred to here as PPARalpha reporter cell line. It contains two genetic elements, a luciferase reporter element (pdeltaM-GAL4-Luc-Zeo) and a PPARalpha fusion protein (GR-GAL4-humanPPARalpha-LBD) which mediates expression of the luciferase reporter element depending on a PPARalpha ligand. The stably and constitutively expressed fusion protein GR-GAL4-humanPPARalpha-LBD binds in the cell nucleus of the PPARalpha reporter cell line via the GAL4 protein portion to the GAL4 DNA binding motifs 5′-upstream of the luciferase reporter element which is stably integrated in the genome of the cell line. There is only weak expression of the luciferase reporter gene in the absence of a PPARalpha ligand if fatty acid-depleted fetal calf serum (cs-FCS) is used in the assay. PPARalpha ligands bind and activate the PPARalpha fusion protein and thereby stimulate the expression of the luciferase reporter gene. The luciferase which is formed can be detected by means of chemiluminescence via an appropriate substrate.
The PPARalpha reporter cell line was prepared in two stages. Firstly, the luciferase reporter element was constructed and stably transfected into HEK cells. For this purpose, five binding sites of the yeast transcription factor GAL4 (Accession # AF264724) were cloned in 5′-upstream of a 68 bp-long minimal MMTV promoter (Accession #V01175). The minimal MMTV promoter section contains a […] and a TATA element in order to enable efficient transcription by RNA polymerase II. The cloning and sequencing of the GAL4-MMTV construct took place in analogy to the description of Sambrook J. et. al. (Molecular cloning, Cold Spring Harbor Laboratory Press, 1989). Then the complete Photinus pyralis gene (Accession #M15077) was cloned in 3′-downstream of the GAL4-MMTV element. After sequencing, the luciferase reporter element consisting of five GAL4 binding sites, MMTV promoter and luciferase gene was recloned into a plasmid which confers zeocin resistance in order to obtain the plasmid pdeltaM-GAL4-Luc-Zeo. This vector was transfected into HEK cells in accordance with the statements in Ausubel, F. M. et al. (Current protocols in molecular biology, Vol. 1-3, John Wiley & Sons, Inc., 1995).
In a second step, the PPARalpha fusion protein (GR-GAL4-humanPPARalpha-LBD was introduced into the stable cell clone described. For this purpose, initially the cDNA coding for the N-terminal 76 amino acids of the glucocorticoid receptor (Accession #P04150) was linked to the cDNA section coding for amino acids 1-147 of the yeast transcription factor GAL4 (Accession #P04386). The cDNA of the ligand-binding domain of the human PPARalpha receptor (amino acids S167-Y468; Accession #S74349) was cloned in at the 3′-end of this GR-GAL4 construct. The fusion construct prepared in this way (GR-GAL4-humanPPARalpha-LBD) was recloned into the plasmid pcDNA3 (Invitrogen) in order to enable constitutive expression therein by the cytomegalovirus promoter. This plasmid was linearized with a restriction endonuclease and stably transfected into the previously described cell clone containing the luciferase reporter element. The finished PPARalpha reporter cell line which contains a luciferase reporter element and constitutively expresses the PPARalpha fusion protein (GR-GAL4-human PPARalpha-LBD) was isolated by selection with zeocin (0.5 mg/ml) and G418 (0.5 mg/ml).
Assay procedure.—The activity of PPARalpha agonists is determined in a 3-day assay which is described below: […]
Background: A reporter such as luciferase makes a cellular process visible.
For the compound `COc1ccc2c(COc3ccc(S(=O)(=O)Nc4nnc(C(C)C)s4)cc3)coc2c1` [Example 3, N-(5-Isopropyl-[1,3,4]thiadiazol-2-yl)-4-(6-methoxy-benzofuran-3-ylmethoxy)-benzenesulfonamide], the EC50 came to 4570 nM.

Compound `CC(C)c1nnc(NS(=O)(=O)c2ccc(OCc3ccc(Oc4ccc(C(F)(F)F)cc4)cc3)cc2)s1` [Example 4, N-(5-Isopropyl-[1,3,4]thiadiazol-2-yl)-4-[4-(4-trifluoromethyl-phenoxy)-benzyloxy]-benzenesulfonamide] had an EC50 of 540 nM.

In turn, `CCc1oc(-c2cccc(C(F)(F)F)c2)nc1COc1ccc(S(=O)(=O)Nc2nnc(C(C)C)s2)cc1` [Example 14, 4-[5-Ethyl-2-(3-trifluoromethyl-phenyl)-oxazol-4-ylmethoxy]-N-(5-isopropyl-[1,3,4]thiadiazol-2-yl)-benzenesulfonamide] yielded an EC50 of 190 nM.

`COc1ccc(-c2nc(COc3ccc(S(=O)(=O)Nc4nnc(C(C)C)s4)cc3)no2)cc1` [Example 9, N-(5-Isopropyl-[1,3,4]thiadiazol-2-yl)-4-[5-(4-methoxy-phenyl)-[1,2,4]oxadiazol-3-ylmethoxy]-benzenesulfonamide]: the EC50 stood at 1420 nM.

In the case of `COc1ccc(-c2nc(COc3ccc(S(=O)(=O)Nc4nnc(C(C)C)s4)cc3)co2)cc1` [Example 13, N-(5-Isopropyl-[1,3,4]thiadiazol-2-yl)-4-[2-(4-methoxy-phenyl)-oxazol-4-ylmethoxy]-benzenesulfonamide], the midpoint of the response, the EC50, lay at 1200 nM.

As to `Cc1nc(-c2ccc(C(F)(F)F)cc2)sc1COc1ccc(S(=O)(=O)Nc2nnc(C(C)C)s2)cc1` [Example 1, N-(5-Isopropyl-[1,3,4]thiadiazol-2-yl)-4-[4-methyl-2-(4-trifluoromethyl-phenyl)-thiazol-5-ylmethoxy]-benzenesulfonamide], the response was half-maximal at 2900 nM (EC50).
